Results: paper PMC3883289, “DER containing two consecutive GTP-binding domains plays an essential role in chloroplast ribosomal RNA processing and ribosome biogenesis in higher plants” (Journal of Experimental Botany, 2013)

Target: T1, NbDER (MBP:NbDER) (Nicotiana benthamiana, UniProt R4N342, S369A)
T1 construct: gene YphC; without N-terminal chloroplast transit peptide (Met-1 to Ser-60); N-terminal MBP tag kept; E. coli; precursor 651 residues; GD1, GD2 and CTD present; fusion proteins approximately 60-107 kDa
T1 sequence (R4N342 entry or part of it S369A): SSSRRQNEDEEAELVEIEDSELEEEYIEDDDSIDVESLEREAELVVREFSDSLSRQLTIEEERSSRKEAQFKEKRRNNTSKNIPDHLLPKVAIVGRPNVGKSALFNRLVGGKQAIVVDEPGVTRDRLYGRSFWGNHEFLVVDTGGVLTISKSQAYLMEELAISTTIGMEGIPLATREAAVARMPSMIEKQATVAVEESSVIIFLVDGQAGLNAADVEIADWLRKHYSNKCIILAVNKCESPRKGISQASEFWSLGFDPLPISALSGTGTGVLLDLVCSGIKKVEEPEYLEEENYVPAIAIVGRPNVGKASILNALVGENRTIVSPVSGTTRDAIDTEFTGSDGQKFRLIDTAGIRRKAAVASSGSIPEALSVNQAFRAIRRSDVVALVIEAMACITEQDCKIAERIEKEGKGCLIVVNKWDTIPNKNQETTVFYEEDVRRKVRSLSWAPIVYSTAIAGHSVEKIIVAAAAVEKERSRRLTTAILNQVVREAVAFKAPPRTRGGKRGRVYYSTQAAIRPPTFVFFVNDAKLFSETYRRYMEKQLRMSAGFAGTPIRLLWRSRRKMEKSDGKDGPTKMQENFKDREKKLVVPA
Assay: phosphate release, Biomol green
Format: biochemical
Details: 1 mM GTP, 3 uM protein, HEPES pH 8, 1 mM Mg (printed MgCl4), room temperature, 18 h

Nc1nc2c(ncn2[C@@H]2O[C@H](COP(=O)(O)OP(=O)(O)OP(=O)(O)O)[C@@H](O)[C@H]2O)c(=O)[nH]1 [GTP]
phosphate release, Biomol green: S162A or S369A mutation in NbDER (PM1 or PM2) reduced the k cat values
